From patent publication US20110293676A1, “Oral Cephalotaxine Dosage Forms” (ChemGenex Pharmaceuticals, Inc., priority 2007, published 2011)

Columns and labels:
[1] = Observation for mortality, morbidity and adverse events in the mouse pharmacokinetic study; assay type: in vivo, male CD-1 mice; settings: single dose 0.41 or 1.6 mg/kg p.o. or s.c., observed until 7 days after last blood collection
Description: Animals were observed twice daily (in the morning and in the evening) for mortality and morbidity beginning at the time of arrival from the vendor until the scheduled sacrifice 7 days after the last blood collection. Prior to dosing, each animal was removed from its cage and observed for signs of poor health and abnormal behavior. All animals were weighed prior to dosing.
No unscheduled sacrifices or deaths were recorded. Animals were sacrificed via CO2 7 days after the completion of blood draws.

[2] = Pharmacokinetic study of homoharringtonine in mice, oral vs subcutaneous, plasma HHT content; assay type: in vivo, male CD-1 mice; design: Tmax / t-½: unit not given here; settings: for Concentration of HHT in mouse sodium heparin plasma: single dose; for BA po/sc % / Cmax / Tmax / AUC / t-½: mouse; for AUC / t-½: WINNONLIN NCA model
Description: To evaluate the potential for the development of an oral formulation of homoharringtonine, a pharmacokinetic study was performed in mice. Homoharringtonine was given, at 2 doses, by either oral or subcutaneous routes to male CD-1 mice. After a single administration, blood was collected from the tail vein and analyzed for homoharringtonine content. The animal dosing was performed by Murigenics (Berkeley, Calif.) and the analysis of sera was performed by PHARMout (Sunnyvale, Calif.). […] This bioavailability is considered very good.
Homoharringtonine was manufactured by Stragen for ChemGenex Pharmaceuticals. 5 mg of lyophilized homoharringtonine was provided in a glass vial and was stable at room temperature. The vehicle was 0.9% sodium chloride supplied with the test agent in a separate vial. 27 male CD-1 mice, 8-10 weeks old (Charles River Laboratories) were used for this study. 24 mice were used for dosing, and 3 mice were used as naïve controls.
On the day of the study, 5 ml of saline were added to the 5 mg vial to make a stock of 1 mg/ml HHT. The amount administered for each mouse was based on weight, using a dose volume of 4 ml/kg. The dosing administration was performed according to Table 1.
Test subjects were dosed once. The enzyme blocker was provided in two separate tubes (A & B) Immediately prior to blood collection, 20 μL each of A and B were aliquoted into a small tube (to yield 40 μL of enzyme inhibitor).
Blood from 3 naïve mice was collected for a 0 timepoint. Approximately 50 μL of whole blood per animal (n=3 mice per time point) was collected into heparinized capillary tubes. Heparanized blood was transferred into tubes containing 40 μL of enzyme inhibitor. Samples were clearly marked by PK timepoint and group. Blood was stored on ice until centrifugation. There were 6 mice treated at each dose, but blood was pooled from 3 mice per time point so that each mouse had blood collected at every other timepoint. There were the following timepoints: 0, 15 min, 30 min, 2 hr, 4 hr and 8 hr after the administration of homoharringtonine. There were three samples collected for the T=0 from naïve mice. There were 5 samples collected for each dose, corresponding to the timepoints, 15 min, 30 min, 2 hr, 4 hr and 8 hr after the administration of homoharrigntonine. There were 2 doses for each route, and 2 routes of administration, so there were a total of 20 samples collected from treated mice. Plasma tubes were spun to prepare plasma, frozen to −80° C. and shipped on dry ice to PHARMout for bioanalytical work up.
The Cmax of the oral doses was 4 and 30 ng/mL for the 410 and 1600 μg/kg oral doses, respectively.

With `COC(=O)C[C@](O)(CCCC(C)(C)O)C(=O)O[C@@H]1C(OC)=C[C@]23CCCN2CCc2cc4c(cc2[C@H]13)OCO4` [HHT, cephalotaxine, 4-methyl-2-hydroxy-2-(4-hydroxy-4-methylpentyl) butanediocate ester] the mortality and morbidity [1] was “No mortalities or signs of morbidity were observed”, the “Concentration of HHT in mouse sodium heparin plasma” value (from here on “Concentration of HHT”) ([2]; Group 1: 0.41 mg/kg p.o., 15 min) was 3.54 ng/mL and the “Concentration of HHT” value ([2]; Group 1: 0.41 mg/kg p.o., 30 min) was 3.59 ng/mL. The “Concentration of HHT” value ([2]; Group 1: 0.41 mg/kg p.o., 60 min) was 3.85 ng/mL, the “Concentration of HHT” value ([2]; Group 1: 0.41 mg/kg p.o., 120 min) was 4.29 ng/mL and the “Concentration of HHT” value ([2]; Group 1: 0.41 mg/kg p.o., 240 min) was 1.81 ng/mL. The “Concentration of HHT” value ([2]; Group 1: 0.41 mg/kg p.o., 480 min) was 1.65 ng/mL, the “Concentration of HHT” value ([2]; Group 2: 0.41 mg/kg s.c., 15 min) was 20.4 ng/mL and the “Concentration of HHT” value ([2]; Group 2: 0.41 mg/kg s.c., 30 min) was 11.2 ng/mL. For the same compound, the “Concentration of HHT” value ([2]; Group 2: 0.41 mg/kg s.c., 60 min) was 6.20 ng/mL, the “Concentration of HHT” value ([2]; Group 2: 0.41 mg/kg s.c., 120 min) was 3.59 ng/mL and the “Concentration of HHT” value ([2]; Group 2: 0.41 mg/kg s.c., 240 min) was 2.44 ng/mL. The “Concentration of HHT” value ([2]; Group 2: 0.41 mg/kg s.c., 480 min) was “BQL (Below the quantification limit (1.00 ng/mL))”, the “Concentration of HHT” value ([2]; Group 3: 1.6 mg/kg p.o., 15 min) was 6.58 ng/mL and the “Concentration of HHT” value ([2]; Group 3: 1.6 mg/kg p.o., 30 min) was 8.87 ng/mL. The “Concentration of HHT” value ([2]; Group 3: 1.6 mg/kg p.o., 60 min) was 29.9 ng/mL, the “Concentration of HHT” value ([2]; Group 3: 1.6 mg/kg p.o., 120 min) was 9.18 ng/mL and the “Concentration of HHT” value ([2]; Group 3: 1.6 mg/kg p.o., 240 min) was 5.52 ng/mL. The “Concentration of HHT” value ([2]; Group 3: 1.6 mg/kg p.o., 480 min) was 4.19 ng/mL, the “Concentration of HHT” value ([2]; Group 4: 1.6 mg/kg s.c., 15 min) was 54.4 ng/mL and the “Concentration of HHT” value ([2]; Group 4: 1.6 mg/kg s.c., 30 min) was 15.4 ng/mL. The “Concentration of HHT” value ([2]; Group 4: 1.6 mg/kg s.c., 60 min) was 35.3 ng/mL, the “Concentration of HHT” value ([2]; Group 4: 1.6 mg/kg s.c., 120 min) was 6.38 ng/mL and the “Concentration of HHT” value ([2]; Group 4: 1.6 mg/kg s.c., 240 min) was 7.72 ng/mL. For the same compound, the “Concentration of HHT” value ([2]; Group 4: 1.6 mg/kg s.c., 480 min) was 3.10 ng/mL, the BA po/sc % ([2]; 410 ug/kg, oral compared with subcutaneous dosing) was 76% and the BA po/sc % ([2]; 1600 ug/kg, oral based on the subcutaneous dose) was 77%. The Cmax ([2]; po, 410 ug/kg (1.2 mg/m2)) was 4 ng/mL, the Tmax ([2]; po, 410 ug/kg (1.2 mg/m2)) was 120 and the AUC ([2]; po, 410 ug/kg (1.2 mg/m2)) was 1217 ng·min/mL. The t-½ ([2]; po, 410 ug/kg (1.2 mg/m2)) was 297, the Cmax ([2]; po, 1600 ug/kg (4.8 mg/m2)) was 30 ng/mL and the Tmax ([2]; po, 1600 ug/kg (4.8 mg/m2)) was 60. It also gave an AUC ([2]; po, 1600 ug/kg (4.8 mg/m2)) of 3966 ng·min/mL, a t-½ ([2]; po, 1600 ug/kg (4.8 mg/m2)) of 341 and a Cmax ([2]; sc, 410 ug/kg (1.2 mg/m2)) of 20 ng/mL. For the same compound, the Tmax ([2]; sc, 410 ug/kg (1.2 mg/m2)) was 15, the AUC ([2]; sc, 410 ug/kg (1.2 mg/m2)) was 1599 ng·min/mL and the t-½ ([2]; sc, 410 ug/kg (1.2 mg/m2)) was 215. For the same compound, the Cmax ([2]; sc, 1600 ug/kg (4.8 mg/m2)) was 54 ng/mL, the Tmax ([2]; sc, 1600 ug/kg (4.8 mg/m2)) was 15 and the AUC ([2]; sc, 1600 ug/kg (4.8 mg/m2)) was 5087 ng·min/mL. The t-½ ([2]; sc, 1600 ug/kg (4.8 mg/m2)) was 306.
